# According to patent US20190029637A1, “A WEARABLE SENSOR, AND METHOD, TO MONITOR ANTI-COAGULATION THERAPY” (The Regents of the University of California, priority 2016, published 2019):
# Key:
# [1] = Photoacoustic response of nanoparticle-bound methylene blue coating to heparin and protamine; conditions: 50 U/mL heparin-treated device, protamine 8 mg/mL
# Protocol: The surface charge of these nanoparticle is −23 mV, which is too negative to allow association between the nanoparticle-bound dye and negatively charged heparin. Therefore, the charge of the particle was changed to produce a material that was both stable and responsive to heparin. To tune the nanoparticles, the same were treated with (3-mercaptopropyl) trimethoxysilane (MPTMS) to adjust the zeta potential to −15 mV (SSNP-SH). This material was used with agar gel to create a coating on a catheter tube.
# More importantly, the methylene blue on these modified nanoparticles remain responsive to heparin with 51% more photoacoustic signal at 10 U/mL heparin than PBS for 1 h incubation. The signal enhancement was stable after constant imaging at 680 nm for 9 min (RSD<4%) This system was also reversible. When the 50 U/mL-treated device was reversed with protamine (8 mg/mL), the signal decreased by 42% versus no protamine treatment. The higher signal of the heparin-treated hybrid versus PBS-treated hybrid is likely due to interactions between methylene blue and heparin, which increases the photoacoustic signal and decreases diffusion of this complex and free methylene blue into solution.
# [2] = Photoacoustic spectra of contaminated heparin in the presence of methylene blue; conditions: 5 wt. % contaminated heparin
# Text: In one exemplary implementation, the photoacoustic imaging system used for measurements is a Vevo 2100 commercial instrument (Visualsonics). The scanner is equipped with a 21 MHz-centered transducer (LZ250) and a Q-switched Nd:YAG laser. The laser uses an optical parameteric oscillator and second harmonic generator to generate a tunable laser between 680 and 970 nm with a 1 nm step size and a pulse of 4 to 6 ns at 20 Hz. The peak energy is 45±5 mJ at 20 Hz at the source. The full field-of-view is 14-23 mm wide. The acquisition rate is 5 frames per second. The samples were prepared in small tubing fixed in a self-developed phantom holder which was aligned at ˜10 mm under the transducer. The laser energy was calibrated and optimized using the build-in energy power meter and software before measurements. 100% laser energy was used with 21 MHz frequency and the gain was optimized from 10-40 dB to obtain 3D scans at 680-850 nm as well as photoacoustic spectra from 680 to 850 nm.
# 1×PBS solution was prepared via dissolving one PBS tablet into 200 mL deionized water. The 2 mM methylene blue was prepared fresh by dissolving reagent-grade powder in PBS followed by sonication for 30 minutes at 40 C and then filtering through 0.22 μm. The 0.4 mM methylene blue was prepared by dissolving 2 mM methylene blue with PBS. A batch of OSCS/heparin mixture that simulates OSCS contaminated heparin was prepared at the following steps: 100 μL of 50, 25, 5, 2.5, 0.5, 0.25 μg/mL OSCS, and PBS was added into 100 uL 1000 μg/mL heparin prepared in PBS solution, respectively. The working concentration of OSCS in the above solutions was 25, 12.5, 2.5, 1.25, 0.25, 0.125, 0.025, and 0 μg/mL OSCS, respectively, and the working concentration of heparin is 500 μg/mL. In other words, the heparin solution was contaminated by 5, 2.5, […], 0.05, 0.025, and 0%. The contrast signal of methylene blue/heparin mixture was optimized at the combination of 0.4 mM methylene blue and […]. […]
# Data analysis were performed using the scanner's built-in software. […] The average and standard deviation were calculated. […]
# [3] = target: Antithrombin (Homo sapiens, UniProt P01008); conditions: cited from earlier work
# Chain of Antithrombin (P01008 33-464): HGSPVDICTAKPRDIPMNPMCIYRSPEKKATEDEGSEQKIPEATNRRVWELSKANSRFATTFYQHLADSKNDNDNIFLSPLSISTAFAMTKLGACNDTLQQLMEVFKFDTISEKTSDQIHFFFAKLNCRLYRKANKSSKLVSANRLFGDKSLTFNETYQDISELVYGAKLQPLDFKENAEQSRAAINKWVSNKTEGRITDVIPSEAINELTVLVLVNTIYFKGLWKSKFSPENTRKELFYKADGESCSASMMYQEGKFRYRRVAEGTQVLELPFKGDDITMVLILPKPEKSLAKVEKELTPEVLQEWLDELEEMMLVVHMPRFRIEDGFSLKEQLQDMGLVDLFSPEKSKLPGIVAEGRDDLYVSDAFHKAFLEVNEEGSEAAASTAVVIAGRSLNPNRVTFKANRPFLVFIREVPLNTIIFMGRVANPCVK
Substance,715 nm peak amplified compared to pure heparin in methylene blue [2],also measured
protamine sulfate,,signal decrease versus no protamine treatment [1]: 42%
oversulfated chondroitin sulfate [OSCS],400%,
chondroitin sulfate [CS],476%,
heparin,,increase of the activity of antithrombin [3]: 10^3 fold
dermatan sulfate [DS],475%,
